Laboratory results published in publication PMC9680032, “Conformationally Locked Carbocyclic Nucleosides Built on a 4′-Hydroxymethyl-3′-hydroxybicyclo[4.1.0]heptane Template. Stereoselective Synthesis and Antiviral Activity” (The Journal of Organic Chemistry, 2022).

Experiments:
Vaccinia virus = test: microbe, parasite or virus in culture; type: cell-based; settings: for EC50: Orthopoxvirus vaccinia, HEL, read-out: Antiviral EC50 Vaccinia virus
in vitro [1] = settings: human
[2] = test system: Herpes simplex virus-1 (KOS); test: microbe, parasite or virus in culture; type: cell-based; settings: for EC50: Human alphaherpesvirus 1, HEL, read-out: Antiviral EC50 Herpes simplex virus-1 (KOS)
[3] = test system: Herpes simplex virus-2 (G); test: microbe, parasite or virus in culture; type: cell-based; settings: for EC50: Human alphaherpesvirus 2, HEL, read-out: Antiviral EC50 Herpes simplex virus-2 (G)
Adeno virus-2 = test: organism not typed; type: cell-based; settings: for EC50: HEL, read-out: Antiviral EC50 Adeno virus-2
[4] = test system: Human immunodeficiency virus (ROD); test: Antiviral CPE assay, HIV-2 (ROD) in MT-4 cells; type: cell-based; settings: for EC50: Human immunodeficiency virus 2, MT4
[5] = test system: Human immunodeficiency virus (IIIB); test: Antiviral CPE assay, HIV-1 (IIIB) in MT-4 cells; type: cell-based, human immunodeficiency virus type 1 (HIV-1); settings: for EC50: Human immunodeficiency virus 1, IIIB, MT4
[6] = test system: MT-4 cells (human lymphocytic cell line); test: Cytotoxicity in MT-4 cell cultures (MTS); settings: MT-4 cell cultures, MTS assay
[7] = test system: Respiratory syncytial virus; test: Antiviral CPE assay, Respiratory syncytial virus in HEp-2 cells; type: cell-based; settings: for EC50: human respiratory syncytial virus, HEp-2
in vitro [8] = settings: dog
Sindbis virus = test: Antiviral CPE assay, Sindbis virus in Vero cells; type: cell-based; settings: for EC50: Sindbis virus, Vero
[9] = Cytotoxicity in Vero cell cultures (MTS); type: cell-based, African green monkey; settings: African green monkey, Vero cells (kidney epithelial cells), uninfected, MTS assay, read-out: Cytotoxixity CC50
Coxsackie virus B4 [10] = test: Antiviral CPE assay, Coxsackie virus B4 in Vero cells; type: cell-based; settings: for EC50: Enterovirus B, B4, Vero
[11] = test system: Influenza A virus A/Ned/378/05A (H1N1); test: Antiviral CPE assay, Influenza A (H1N1) in MDCK cells; type: cell-based; settings: for EC50: Influenza A virus, H1N1, MDCK
Human Coronavirus (229E) = test: microbe, parasite or virus in culture; type: cell-based; settings: for EC50: Human coronavirus 229E, HEL, read-out: Antiviral EC50 Human Coronavirus (229E)
[12] = test system: Influenza B virus B/Ned/537/05; test: Antiviral CPE assay, Influenza B in MDCK cells; type: cell-based; settings: MDCK cell cultures; for EC50: Influenza B virus
Yellow Fever virus = test: microbe, parasite or virus in culture; type: cell-based; settings: for EC50: Yellow fever virus, Vero, read-out: Antiviral EC50 Yellow Fever virus, Vero cell cultures
Reo-virus-1 = test: Antiviral CPE assay, Reovirus-1 in Vero cells; type: cell-based; settings: for EC50: Vero
Punta Toro virus = test: Antiviral CPE assay, Punta Toro virus in Vero cells; type: cell-based; settings: for EC50: Punta Toro virus, Vero
Coxsackie virus B4 [13] = test: Antiviral CPE assay, Coxsackie virus B4 in HEp-2 cells; type: cell-based; settings: for EC50: Enterovirus B, B4, HEp-2
Zika virus = test: Antiviral CPE assay, Zika virus in Vero cells; type: cell-based; settings: for EC50: Zika virus, Vero
[14] = Cytotoxicity in HEp-2 cell cultures (MTS); settings: human
[15] = Cytotoxicity in MT-4 cell cultures (MTS); settings: human, Cytotoxixity CC50, MT-4 cell cultures, MTS assay
[16] = test system: Vesicular stomatitis virus; test: microbe, parasite or virus in culture; type: cell-based; settings: for EC50: Vesicular stomatitis virus, HEp-2, read-out: Antiviral EC50 Vesicular stomatitis virus
[17] = test system: Influenza A virus A/HK/7/87 (H3N2); test: Antiviral CPE assay, Influenza A (H3N2) in MDCK cells; type: cell-based; settings: for EC50: Influenza A virus, H3N2, MDCK
Vero cells = test: Cytotoxicity in Vero cell cultures (MTS); type: cell-based, African green monkey; settings: MTS assay
[18] = test system: MDCK (Madin-Darby Canine Kidney) cells; settings: dog
HEL cells = settings: human
[19] = test system: HEp-2 (Human Epidermoid carcicoma) cells; test: Cytotoxicity in HEp-2 cell cultures (MTS); settings: HEp-2 cell cultures, MTS assay
in vitro [20] = settings: human, Cytotoxixity CC50

Nc1ccn(C[C@@H](CO)OCP(=O)(O)O)c(=O)n1 [Cidofovir, reference compound]
39.3 µM: EC50 [2]
8.7 µM: EC50 (Vaccinia virus)
> 250 µM: CC50 (in vitro [1])
9.9 µM: EC50 (Adeno virus-2)
7.5 µM: EC50 [3]

Cc1ccnc2c1NC(=O)c1cccnc1N2C1CC1 [Neviparine, reference compound]
0.075 µg/mL: Antiviral EC50 Human immunodeficiency virus (IIIB) [5]
> 4 µg/mL: Antiviral EC50 Human immunodeficiency virus (ROD) [4] | Cytotoxixity CC50 [6]

NC(=O)c1cn(C2CC(O)C(CO)C3CC32)nn1 (stereo not drawn) [Compound 3a, 1-[(1′S,2′S,4′R,5′R,6′R)-4′-Hydroxy-5′-(hydroxymethyl)bicyclo[4.1.0]hept-2′-yl]-1H-1,2,3-triazole-4-carboxamide]
> 125 µg/mL: EC50 [4] | EC50 [5] | CC50 [15]
> 50 µg/mL: EC50 [7] | CC50 (in vitro [8]) | EC50 (Sindbis virus) | CC50 [9] | EC50 (Coxsackie virus B4 [10]) | EC50 [11] | EC50 (Human Coronavirus (229E)) | EC50 [12] | EC50 (Vaccinia virus) | EC50 (Yellow Fever virus) | EC50 (Reo-virus-1) | EC50 [2] | EC50 (Punta Toro virus) | EC50 (Coxsackie virus B4 [13]) | EC50 (Zika virus) | EC50 [3] | CC50 [14] | EC50 (Adeno virus-2) | EC50 [16] | EC50 [17]

Cc1cn(C2CC(O)C(CO)C3CC32)c(=O)[nH]c1=O (stereo not drawn) [Compound 2, 1-[(1′S,2′S,4′S,5′R,6′R)-4′-Hydroxy-5′-(hydroxymethyl)bicyclo[4.1.0]hept-2′-yl]-5-methylpyrimidine-2,4(1H,3H)-dione]
> 50 µg/mL: Antiviral EC50 Respiratory syncytial virus [7] | Antiviral EC50 Sindbis virus (Sindbis virus) | Cytotoxixity CC50 (Vero cells) | Antiviral EC50 Coxsackie virus B4 (Coxsackie virus B4 [10]) | Antiviral EC50 Influenza A virus A/Ned/378/05 (H1N1) [11] | Cytotoxixity CC50 [18] | Antiviral EC50 Human Coronavirus (229E) (Human Coronavirus (229E)) | Antiviral EC50 Influenza B virus B/Ned/537/05 [12] | Antiviral EC50 Vaccinia virus (Vaccinia virus; HEL cell cultures) | Antiviral EC50 Yellow Fever virus (Yellow Fever virus; Vero cell cultures) | Antiviral EC50 Reo-virus-1 (Reo-virus-1) | Cytotoxixity CC50 (HEL cells) | Antiviral EC50 Herpes simplex virus-1 (KOS) [2] | Antiviral EC50 Punta Toro virus (Punta Toro virus) | Antiviral EC50 Coxsackie virus B4 (Coxsackie virus B4 [13]) | Antiviral EC50 Zika virus (Zika virus) | Antiviral EC50 Herpes simplex virus-2 (G) [3] | Cytotoxixity CC50 [19] | Antiviral EC50 Adeno virus-2 (Adeno virus-2) | Antiviral EC50 Vesicular stomatitis virus ([16]; HEp-2 cell cultures) | Antiviral EC50 Influenza A virus A/HK/7/87 (H3N2) [17]
> 125 µg/mL: Antiviral EC50 Human immunodeficiency virus (ROD) [4] | Antiviral EC50 Human immunodeficiency virus (IIIB) [5] | Cytotoxixity CC50 [6]

Cc1cn(C2CC(O)C(CO)C3CC32)c(=O)[nH]c1=O (stereo not drawn) [Compound 1a, 1-((1′S,2′S,4′R,5′R,6′R)-4′-Hydroxy-5′-(hydroxymethyl)bicyclo[4.1.0]heptan-2′-yl)-5-methylpyrimidine-2,4(1H,3H)-dione]
99.1 µg/mL: CC50 [15]
189 to 191 °C: melting point
> 50 µg/mL: EC50 [7] | CC50 (in vitro [8]) | EC50 (Sindbis virus) | CC50 [9] | EC50 (Coxsackie virus B4 [10]) | EC50 [11] | EC50 (Human Coronavirus (229E)) | EC50 [12] | EC50 (Vaccinia virus) | EC50 (Yellow Fever virus) | EC50 (Reo-virus-1) | EC50 [2] | EC50 (Punta Toro virus) | EC50 (Coxsackie virus B4 [13]) | EC50 (Zika virus) | EC50 [3] | CC50 [14] | EC50 (Adeno virus-2) | EC50 [16] | EC50 [17]
> 99.1 µg/mL: EC50 [4] | EC50 [5]

Nc1nc(O)c2ncn(COC(CO)CO)c2n1 [Ganciclovir, reference compound]
0.4 µM: EC50 [2]
> 100 µM: EC50 (Vaccinia virus) | CC50 (in vitro [1])
0.09 µM: EC50 [3]

OCc1cn(C2CC(O)C(CO)C3CC32)nn1 [Compound 3e, (1R,2R,3R,5S,6S)-2-(Hydroxymethyl)-5-[4″-(hydroxymethyl)-1H-1″,2″,3″-triazol-1‴-yl]bicyclo[4.1.0]heptan-3-ol]
> 50 µg/mL: EC50 [7] | CC50 (in vitro [8]) | EC50 (Sindbis virus) | CC50 [9] | EC50 (Coxsackie virus B4 [10]) | EC50 [11] | EC50 (Human Coronavirus (229E)) | EC50 [12] | EC50 (Vaccinia virus) | EC50 (Yellow Fever virus) | EC50 (Reo-virus-1) | EC50 [2] | EC50 (Punta Toro virus) | EC50 (Coxsackie virus B4 [13]) | EC50 (Zika virus) | EC50 [3] | CC50 [14] | EC50 (Adeno virus-2) | EC50 [16] | EC50 [17]
> 116 µg/mL: EC50 [4] | EC50 [5]
≥ 116 µg/mL: CC50 [15]

Nc1nc2c(ncn2C2CC(O)C(CO)C3CC32)c(=O)[nH]1 (stereo not drawn) [Compound 1b, 2-Amino-9-[(1′S,2′S,4′R,5′S,6′S)-4′-hydroxy-5′-(hydroxymethyl) Bicyclo[4.1.0]hept-2′-yl]-1,9-dihydro-6H-purin-6-one]
> 125 µg/mL: EC50 [4] | EC50 [5] | CC50 [15]
> 50 µg/mL: EC50 [7] | CC50 (in vitro [8]) | EC50 (Sindbis virus) | CC50 [9] | EC50 (Coxsackie virus B4 [10]) | EC50 [11] | EC50 (Human Coronavirus (229E)) | EC50 [12] | EC50 (Vaccinia virus) | EC50 (Yellow Fever virus) | EC50 (Reo-virus-1) | EC50 [2] | EC50 (Punta Toro virus) | EC50 (Coxsackie virus B4 [13]) | EC50 (Zika virus) | EC50 [3] | CC50 [14] | EC50 (Adeno virus-2) | EC50 [16] | EC50 [17]

O=c1[nH]c(=O)n([C@H]2C[C@H](O)[C@@H](CO)O2)cc1/C=C/Br [Brivudin, reference compound]
> 250 µM: CC50 (in vitro [1])
12.6 µM: EC50 (Vaccinia virus)
22.1 µM: EC50 [3]
0.2 µM: EC50 [2]

Nc1ccn([C@@H]2CS[C@H](CO)O2)c(=O)n1 [Lamivudine, reference compound]
0.58 µg/mL: EC50 [5]
> 20 µg/mL: CC50 (in vitro [20])
2.27 µg/mL: EC50 [4]

Nc1nc2c(ncn2COCCO)c(=O)[nH]1 [Acyclovir, reference compound]
0.5 µM: EC50 [3]
1.9 µM: EC50 [2]
> 250 µM: EC50 (Vaccinia virus) | CC50 (in vitro [1])

NC(=O)c1nnn(C2CC(O)C(CO)C3CC32)c1N (stereo not drawn) [Compound 3b, 5-Amino-1-[(1′S,2′S,4′R,5′R,6′R)-4′-hydroxy-5′-(hydroxymethyl)bicyclo-[4.1.0]hept-2′-yl]-1H-1,2,3-triazole-4-carboxamide]
210 to 213 °C: melting point
> 50 µg/mL: EC50 [7] | CC50 (in vitro [8]) | EC50 (Sindbis virus) | CC50 [9] | EC50 (Coxsackie virus B4 [10]) | EC50 [11] | EC50 (Human Coronavirus (229E)) | EC50 [12] | EC50 (Vaccinia virus) | EC50 (Yellow Fever virus) | EC50 (Reo-virus-1) | EC50 [2] | EC50 (Punta Toro virus) | EC50 (Coxsackie virus B4 [13]) | EC50 (Zika virus) | EC50 [3] | CC50 [14] | EC50 (Adeno virus-2) | EC50 [16] | EC50 [17]
> 125 µg/mL: EC50 [4] | EC50 [5] | CC50 [15]
